# Where “and” joins values, the source holds several entries; their conditions need not be identical. Identical values can stand only once.
# Key:
# children with NS [1] = assay: Serum albumin before and after addition of pioglitazone; format: in vivo, human; conditions: for % S Alb increase (0-1 mo) / % S Alb increase (5-7 mo): vs 0-1 mo pre-PIO; for serum albumin increase, range / mean serum albumin: Responders; for mean serum albumin: pre 2.5 g/dL
# Description: In the following clinical studies, the efficacy and safety of adding pioglitazone to reduce proteinuria in children with NS was examined. All children with NS identified worldwide to have been treated with pioglitazone were included, with no patients excluded. Each patient had pioglitazone added to their other NS medications at the discretion of their treating pediatric nephrologist. All patient records were reviewed in a de-identified manner, with prior ethics committee approval at each institution. Data were analyzed based on defined time periods before and after the addition of pioglitazone. Patients were defined as having responded to pioglitazone (i.e., Responders) if their urine protein to creatinine ratio (UPCR, mg/mg) decreased from the period 0-1 month pre-pioglitazone to the period 0-1 month post-pioglitazone. Glomerular filtration rate estimation (eGFR) in patients <18 years was calculated using the revised Schwartz equation. In patients >18 years, eGFR was calculated as the mean of the revised Schwartz and CKD-EPI creatinine equations. Quantitative data, such as patient age, duration of NS, pioglitazone dosage, and outcomes of UPCR, TIS, and serum albumin, were summarized as means (standard errors of mean), while categorical data such as renal survival status were summarized as frequency (percent). Due to a small sample size, Responders and Non-responders were compared using Wilcoxon Rank Sum tests on quantitative variables and Fisher's exact tests on categorical variables. For both Responders and Non-responders, pre-pioglitazone to post-pioglitazone initiation changes in UPCR, TIS, and serum albumin levels were analyzed using Wilcoxon Signed Rank tests. Numbers of hospitalizations pre-pioglitazone and post-pioglitazone initiation were analyzed and compared using Poisson distributions. Statistical significance was assessed at both the 0.05 and 0.10 levels. All analyses were conducted using SPSS software ver. 26 (IBM, Armonk, NY, USA).
# children with NS [2] = assay: Total Immunosuppression Score (TIS) before and after addition of pioglitazone; format: in vivo, human; parameters: % TIS reduction (0-1 mo) / % TIS reduction (5-7 mo) / % TIS reduction (0-1 mo), Mean (SEM) / % TIS reduction (5-7 mo), Mean (SEM): concentration or dose not given beside the values
# Description: The reduction in overall immunosuppression can be quantified by comparing the “Total Immunosuppression Score” (TIS) prior to and after the addition of a TZD to the drug regimen (see FIG. 3 herein). The TIS is based on a combination of the number of immunosuppressive drugs being administered and the dose at which each drug is administered. The score for each drug is on a scale of 0 to 4, where: 0=no drug administered; 1=drug administered up to less than 25% of the standardized full dose; 2=drug administered between 25% and less than 50% of the standardized full dose; 3=drug administered between 50% and less than 75% of the standardized full dose; 4=drug administered between 75% and 100% of the standardized full dose. As an example, if five different immunosuppressive medicaments are co-administered to a subject each at their standardized full dose, the TIS=20.
# For each patient, a Total Immunosuppression Score (TIS) (see Table 3) was calculated to quantitate overall immunosuppression. For each class of immunosuppressive drug administered during a given time period, a score of 0-4 was assigned based on the percentage of a full dose for each patient's body size (0=0%; 1=<25%; 2=≥25-<50%; 3=≥50-<75%: 4=≥75%).
# Quantitative data, such as patient age, duration of NS, pioglitazone dosage, and outcomes of UPCR, TIS, and serum albumin, were summarized as means (standard errors of mean), while categorical data such as renal survival status were summarized as frequency (percent). Due to a small sample size, Responders and Non-responders were compared using Wilcoxon Rank Sum tests on quantitative variables and Fisher's exact tests on categorical variables. For both Responders and Non-responders, pre-pioglitazone to post-pioglitazone initiation changes in UPCR, TIS, and serum albumin levels were analyzed using Wilcoxon Signed Rank tests. Numbers of hospitalizations pre-pioglitazone and post-pioglitazone initiation were analyzed and compared using Poisson distributions. Statistical significance was assessed at both the 0.05 and 0.10 levels. All analyses were conducted using SPSS software ver. 26 (IBM, Armonk, NY, USA).
# [3] = Patient 1 (Responder), pre-PIO 2.5
# [4] = Patient 2 (Responder), pre-PIO 2.4
# [5] = Patient 3 (Responder), pre-PIO 1.7
# [6] = Patient 5 (Non-responder), pre-PIO 4.4
# [7] = Patient 6 (Responder), pre-PIO 4.5
# [8] = Patient 7 (Non-responder), pre-PIO 2.9
# [9] = Patient 8 (Responder), pre-PIO 1.2
# [10] = mean of 5 Responders, pre-PIO 2.46
# [11] = mean of Non-responders (Patient 4 ESRD)
# [12] = Patient 1 (Responder), pre-PIO 13
# [13] = Patient 1 (Responder), vs 0-1 mo pre-PIO
# [14] = Patient 2 (Responder), pre-PIO 12
# [15] = Patient 2 (Responder), vs 0-1 mo pre-PIO
# [16] = Patient 3 (Responder), pre-PIO 0
# [17] = Patient 3 (Responder), vs 0-1 mo pre-PIO (TIS 0)
# [18] = Patient 5 (Non-responder), pre-PIO 4
# [19] = Patient 5 (Non-responder), vs 0-1 mo pre-PIO
# [20] = Patient 6 (Responder), pre-PIO 2
# [21] = Patient 7 (Non-responder), pre-PIO 3
# [22] = Patient 7 (Non-responder), vs 0-1 mo pre-PIO
# [23] = Patient 8 (Responder), pre-PIO 4
# [24] = Patient 8 (Responder), vs 0-1 mo pre-PIO
# [25] = mean of 5 Responders, pre-PIO 6.20
smiles,measurement,setting,value
CCc1ccc(CCOc2ccc(CC3SC(=O)NC3=O)cc2)nc1 (stereo not shown) [pioglitazone],Post-PIO S Alb (0-1 mo; g/dL),children with NS [1]; [3],2.9 g/dL
same,Post-PIO S Alb (5-7 mo; g/dL),children with NS [1]; [3],3.5 g/dL
same,% S Alb increase (0-1 mo),children with NS [1]; Patient 1 (Responder),16.0%
same,% S Alb increase (5-7 mo),children with NS [1]; Patient 1 (Responder),40.0%
same,Post-PIO S Alb (0-1 mo; g/dL),children with NS [1]; [4],3 g/dL
same,Post-PIO S Alb (5-7 mo; g/dL),children with NS [1]; [4],3.5 g/dL
same,% S Alb increase (0-1 mo),children with NS [1]; Patient 2 (Responder),25.0%
same,% S Alb increase (5-7 mo),children with NS [1]; Patient 2 (Responder),45.8%
same,Post-PIO S Alb (0-1 mo; g/dL),children with NS [1]; [5],2.3 g/dL
same,Post-PIO S Alb (5-7 mo; g/dL),children with NS [1]; [5],3.7 g/dL
same,% S Alb increase (0-1 mo),children with NS [1]; Patient 3 (Responder),35.3%
same,% S Alb increase (5-7 mo),children with NS [1]; Patient 3 (Responder),118%
same,Post-PIO S Alb (0-1 mo; g/dL),"children with NS [1]; Patient 4 (Non-responder), pre-PIO 1.6, increase attributed to declining kidney function",2.7 g/dL
same,% S Alb increase (0-1 mo),children with NS [1]; Patient 4 (Non-responder),68.8%
same,Post-PIO S Alb (0-1 mo; g/dL),children with NS [1]; [6],4.1 g/dL
same,Post-PIO S Alb (5-7 mo; g/dL),children with NS [1]; [6],4.3 g/dL
same,% S Alb increase (0-1 mo),children with NS [1]; Patient 5 (Non-responder),−6.82%
same,% S Alb increase (5-7 mo),children with NS [1]; Patient 5 (Non-responder),−2.27%
same,Post-PIO S Alb (0-1 mo; g/dL),children with NS [1]; [7],4.1 g/dL
same,Post-PIO S Alb (5-7 mo; g/dL),children with NS [1]; [7],4.4 g/dL
same,% S Alb increase (0-1 mo),children with NS [1]; Patient 6 (Responder),−8.89%
same,% S Alb increase (5-7 mo),children with NS [1]; Patient 6 (Responder),−2.22%
same,Post-PIO S Alb (0-1 mo; g/dL),children with NS [1]; [8],2.8 g/dL
same,Post-PIO S Alb (5-7 mo; g/dL),children with NS [1]; [8],3.1 g/dL
same,% S Alb increase (0-1 mo),children with NS [1]; Patient 7 (Non-responder),−3.45%
same,% S Alb increase (5-7 mo),children with NS [1]; Patient 7 (Non-responder),6.90%
same,Post-PIO S Alb (0-1 mo; g/dL),children with NS [1]; [9],3.1 g/dL
same,Post-PIO S Alb (5-7 mo; g/dL),children with NS [1]; [9],3.4 g/dL
same,% S Alb increase (0-1 mo),children with NS [1]; Patient 8 (Responder),158%
same,% S Alb increase (5-7 mo),children with NS [1]; Patient 8 (Responder),183%
same,"serum albumin increase, range",children with NS [1]; 0-1 month post-pioglitazone,−9-158%
same,mean serum albumin,children with NS [1]; 0-1 month post-pioglitazone,3.1 g/dL
same,"serum albumin increase, range",children with NS [1]; 5-7 months post-pioglitazone,−2-183%
same,mean serum albumin,children with NS [1]; 5-7 months post-pioglitazone,3.7 g/dL
same,"% S Alb increase (0-1 mo), Mean (SEM)",children with NS [1]; mean of 5 Responders,45% and 45.2%
same,"% S Alb increase (5-7 mo), Mean (SEM)",children with NS [1]; mean of 5 Responders,77% and 76.9%
same,"Post-PIO S Alb (0-1 mo; g/dL), Mean (SEM)",children with NS [1]; [10],3.08 g/dL
same,"Post-PIO S Alb (5-7 mo; g/dL), Mean (SEM)",children with NS [1]; [10],3.7 g/dL
same,"% S Alb increase (0-1 mo), Mean (SEM)",children with NS [1]; mean of Non-responders,19.5%
same,"Post-PIO S Alb (5-7 mo; g/dL), Mean (SEM)",children with NS [1]; [11],3.7 g/dL
same,"% S Alb increase (5-7 mo), Mean (SEM)",children with NS [1]; mean of Non-responders (without Patient 4),2.31%
same,"Post-PIO S Alb (0-1 mo; g/dL), Mean (SEM)","children with NS [1]; mean of Non-responders, pre-PIO 2.97",3.2 g/dL
same,mean TIS,"children with NS [2]; Non-responders, before and after pioglitazone treatment",approximately 3.5
same,Post-PIO TIS (0-1 mo),children with NS [2]; [12],11
same,Post-PIO TIS (5-7 mo),children with NS [2]; [12],5
same,% TIS reduction (0-1 mo),children with NS [2]; [13],15% and 15.4%
same,% TIS reduction (5-7 mo),children with NS [2]; [13],62% and 61.5%
same,Post-PIO TIS (0-1 mo),children with NS [2]; [14],12
same,Post-PIO TIS (5-7 mo),children with NS [2]; [14],8
same,% TIS reduction (0-1 mo),children with NS [2]; [15],0%
same,% TIS reduction (5-7 mo),children with NS [2]; [15],33% and 33.3%
same,Post-PIO TIS (0-1 mo),children with NS [2]; [16],2
same,Post-PIO TIS (5-7 mo),children with NS [2]; [16],1
same,% TIS reduction (0-1 mo),children with NS [2]; [17],−∞
same,% TIS reduction (5-7 mo),children with NS [2]; [17],−∞
same,TIS increase,"children with NS [2]; Patient 4 (Non-responder), over the next 1 month",133%
same,Post-PIO TIS (0-1 mo),"children with NS [2]; Patient 4 (Non-responder), pre-PIO 3",7
same,% TIS reduction (0-1 mo),"children with NS [2]; Patient 4 (Non-responder), vs 0-1 mo pre-PIO",−133%
same,Post-PIO TIS (0-1 mo),children with NS [2]; [18],4
same,Post-PIO TIS (5-7 mo),children with NS [2]; [18],4
same,% TIS reduction (0-1 mo),children with NS [2]; [19],0.00%
same,% TIS reduction (5-7 mo),children with NS [2]; [19],0.00%
same,Post-PIO TIS (0-1 mo),children with NS [2]; [20],2
same,Post-PIO TIS (5-7 mo),children with NS [2]; [20],2
same,% TIS reduction (5-7 mo),"children with NS [2]; Patient 6 (Responder), vs 0-1 mo pre-PIO",0.00%
same,Post-PIO TIS (0-1 mo),children with NS [2]; [21],3
same,Post-PIO TIS (5-7 mo),children with NS [2]; [21],3
same,% TIS reduction (0-1 mo),children with NS [2]; [22],0.00%
same,% TIS reduction (5-7 mo),children with NS [2]; [22],0.00%
same,Post-PIO TIS (0-1 mo),children with NS [2]; [23],3
same,Post-PIO TIS (5-7 mo),children with NS [2]; [23],2
same,% TIS reduction (0-1 mo),children with NS [2]; [24],25%
same,% TIS reduction (5-7 mo),children with NS [2]; [24],50%
same,decrease in overall exposure to immunosuppressive medications (mean TIS),"children with NS [2]; Responders, mean TIS 6.2 at 0-1 month pre- to 3.6 at 5-7 months post-pioglitazone",42%
same,"% TIS reduction (0-1 mo), Mean (SEM)",children with NS [2]; mean of 5 Responders,−∞
same,"% TIS reduction (5-7 mo), Mean (SEM)",children with NS [2]; mean of 5 Responders,−∞
same,"Post-PIO TIS (0-1 mo), Mean (SEM)",children with NS [2]; [25],6.00
same,"Post-PIO TIS (5-7 mo), Mean (SEM)",children with NS [2]; [25],3.6
same,"% TIS reduction (0-1 mo), Mean (SEM)",children with NS [2]; mean of Non-responders,−44.4%
same,"Post-PIO TIS (5-7 mo), Mean (SEM)",children with NS [2]; [11],3.50
same,"% TIS reduction (5-7 mo), Mean (SEM)",children with NS [2]; mean of Non-responders (Patient 4 NA),0.00%
same,"Post-PIO TIS (0-1 mo), Mean (SEM)","children with NS [2]; mean of Non-responders, pre-PIO 3.33",4.67

# — patent publication US20250281507A1, “METHODS OF TREATING NEPHROTIC SYNDROME” (The Research Institute at Nationwide Children's Hospital, priority 2021, published 2025)
